# Source: PMC8746696 (Molecules, 2021)
# What was measured:
# HeLa cells [1] = test system: HeLa cells
# Procedure: (§1) Next, we examined the intrinsic cytotoxicity of the compounds on HeLa cervical cancer cells and human embryonic kidney derived cells HEK293A.
# (§2) Cytotoxicity of the compounds to HeLa (human cervical cancer) and HEK293A (human embryonic kidney) cell lines was examined using the EZ4U Cell Proliferation and Cytotoxicity Assay (Biomedica, Vienna, Austria), according to the manufacturer’s protocols. The cells were grown in Iscove’s modified Dulbecco’s medium (IMDM) with 40 μg/mL gentamicin, 50 IU/mL penicillin, 50 μg/mL streptomycin (MP Biomedicals, Waltham, MA, USA), and 10% of fetal bovine serum (Biolot, Saint Petersburg, Russia) in a 5% CO2 atmosphere. After the formation of a 30–50%monolayer, the tested compounds were added to the medium. […] The volume of the added reagents was 1/100 of the total volume of the culture medium, and the amount of DMSO was 1% of the final volume. Control cells were grown in the presence of 1% DMSO. The cell culture was monitored for three days.
# [2] = Intrinsic cytotoxicity, EZ4U assay, HEK293A; conditions: human, HEK293A cells
# Procedure: as §1, §2
# [3] = Intrinsic cytotoxicity, EZ4U assay, HeLa; conditions: human, HeLa cells
# Procedure: as §1, §2
# TDP1 = TDP1 (Homo sapiens, UniProt Q9NUW8); experiment: Real-time fluorescence detection of TDP1 activity (FAM/BHQ1 oligonucleotide biosensor); format: biochemical; conditions: concentration that inhibits the activity of the enzyme by 50%; read-out: TDP1 IC50
# Source text: For real-time detection of TDP1 activity, we used the oligonucleotide biosensor based on the ability of TDP1 to remove fluorophore quenchers from the 3′-end of DNA [29]. The hexadecameric oligonucleotide carried 5(6)-carboxyfluorescein (FAM) at the 5′-end and fluorophore quencher BHQ1 (Black Hole Quencher-1) at the 3′-end. TDP1 inhibitors prevent the removal of fluorophore quenchers, thus reducing fluorescence intensity.
# TDP1 activity was detected, as described by intensity measurement in a reaction of quencher removal from a fluorophore quencher–coupled DNA oligonucleotide catalyzed by TDP1. The reaction was carried out at different concentrations of inhibitors (the control samples contained 1% of DMSO). The reaction mixtures contained TDP1 buffer (50 mM Tris-HCl pH 8.0, 50 mM NaCl, and 7 mM β-mercaptoethanol), 50 nM biosensor, and an inhibitor being tested. Purified TDP1 (1.5 nM) triggered the reaction. The biosensor (5′-[FAM] AAC GTC AGGGTC TTC C [BHQ]-3′) was synthesized in the Laboratory of Nucleic Acid Chemistry at the Institute of Chemical Biology and Fundamental Medicine (Novosibirsk, Russia).
# The reactions were incubated on a POLARstar OPTIMA fluorimeter (BMG LABTECH, GmbH, Ortenberg, Germany) to measure fluorescence every 60 s (ex. 485/em. 520 nm) during the linear phase (here, data from minute 0 to minute 8). The values of IC50 were determined using a six-point concentration response curve in a minimum of three independent experiments and were calculated using MARS Data Analysis 2.0 (BMG LABTECH, Ortenberg, Germany).
# recombinant human TDP2 = biological target: T1, recombinant human TDP2 (Homo sapiens, UniProt O95551); experiment: Gel-based TDP2 activity assay (removal of 5'-tyrosine from oligonucleotide, PAGE); format: biochemical; set-up: key to Tdp2 activity, c 200 µM / Tdp2 (inhibitor concentration 1 mM): TDP2 active (+); -: inactive (−); conditions: for Tdp2 activity, c 200 µM: c 200 µM (Table S3 head); for Tdp2 (inhibitor concentration 1 mM) / remaining activity at 1000 µM: inhibitor 1 mM; for remaining activity at 1000 µM: residual enzyme activity, read-out: TDP2 (Inhibitor Concentration 1 mM), residual activity of TDP2
# T1 sequence (O95551 1-362): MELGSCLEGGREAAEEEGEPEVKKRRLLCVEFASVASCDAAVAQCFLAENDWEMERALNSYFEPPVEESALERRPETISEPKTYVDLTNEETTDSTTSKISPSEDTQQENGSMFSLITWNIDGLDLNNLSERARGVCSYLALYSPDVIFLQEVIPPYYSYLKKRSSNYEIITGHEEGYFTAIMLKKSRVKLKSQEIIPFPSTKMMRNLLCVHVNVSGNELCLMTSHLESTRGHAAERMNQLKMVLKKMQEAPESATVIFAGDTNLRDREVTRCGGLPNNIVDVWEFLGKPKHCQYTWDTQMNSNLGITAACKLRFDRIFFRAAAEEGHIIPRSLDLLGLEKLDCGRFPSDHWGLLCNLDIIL
# Procedure: We investigated the activity against the TDP2 enzyme for compounds 4–10, 12–15, and 17–19 (Table 1). TDP2 was tested for its ability to eliminate tyrosine residue from the 5’-end of the oligonucleotide substrate. The TDP2 reaction products were separated under denaturing conditions in polyacrylamide gel (PAGE). […] Note that as different assays formats were used for TDP1 and TDP2 inhibition, the value of these assays cannot be directly compared. A paper on derivatives of usnic acid as effective TDP1 inhibitors and mild inhibitors of TDP2 was recently published. […] More inhibitors of this enzyme have also been reported in the literature. Obviously, further work for increasing activity against TDP2 is needed.
# The oligonucleotide with tyrosine residue on the 5′-end (5′-tyrosine-AAC GTC AGG GTC TTC C-FAM-3′) was used for the TDP2 enzyme activity assay. The TDP2 reaction products were separated under denaturing conditions in polyacrylamide gel (PAGE). The reaction was performed in a final volume of 20 μL using 100 nM substrate incubated with 200 nM recombinant human TDP2 in the absence or presence of the inhibitor for 10 min at 37 °C in a buffer containing 50 mM Tris-HCl, pH 8.0, 50 mM NaCl, 7 mM β-mercaptoethanol. Reactions were terminated by the addition of gel loading buffer contained 10% formamide, 7 M carbamide, 0.1% xylene cyanol, and 0,1% bromophenol blue. The samples were heated at 90 °C for 7 min before loading on the gel. The reaction products were separated by electrophoresis in a 20% denaturing PAGE with 7 M carbamide. A Typhoon FLA 9500 phosphorimager (GE Healthcare) was used for gel scanning and imaging. Each experiment was carried out in three independent replicates. The data were analyzed with QuantityOne 4.6.7 software.
# HeLa cells [4] = experiment: Influence on topotecan cytotoxicity (sensitization, combination index); format: cell-based, human
# Procedure: The inhibitors were studied, using their non-toxic concentration, to determine the cytotoxicity of topotecan, which is widely used in the treatment of cancer.
# The concentration of these two compounds was increased to 10 μM and a more distinct effect was observed (Figure 3B). The combination index (CI) for different concentrations of topotecan and 5 at 10 μM was in the range 0.26–0.44, and for 8 at 10 μM, it was 0.18–0.30 (Supplementary Materials, Tables S1 and S2). CI value <1 indicates a synergistic effect of topotecan and compounds 5 and 8 [34].
# The cell culture was monitored for three days.
# HeLa cells [5] = experiment: as above; format: cell-based, human; conditions: compound 5 μM
# HeLa cells [6] = experiment: Intrinsic cytotoxicity, EZ4U assay, HeLa
# Procedure: as §1, §2
# TDP1, sequence (Q9NUW8 whole entry): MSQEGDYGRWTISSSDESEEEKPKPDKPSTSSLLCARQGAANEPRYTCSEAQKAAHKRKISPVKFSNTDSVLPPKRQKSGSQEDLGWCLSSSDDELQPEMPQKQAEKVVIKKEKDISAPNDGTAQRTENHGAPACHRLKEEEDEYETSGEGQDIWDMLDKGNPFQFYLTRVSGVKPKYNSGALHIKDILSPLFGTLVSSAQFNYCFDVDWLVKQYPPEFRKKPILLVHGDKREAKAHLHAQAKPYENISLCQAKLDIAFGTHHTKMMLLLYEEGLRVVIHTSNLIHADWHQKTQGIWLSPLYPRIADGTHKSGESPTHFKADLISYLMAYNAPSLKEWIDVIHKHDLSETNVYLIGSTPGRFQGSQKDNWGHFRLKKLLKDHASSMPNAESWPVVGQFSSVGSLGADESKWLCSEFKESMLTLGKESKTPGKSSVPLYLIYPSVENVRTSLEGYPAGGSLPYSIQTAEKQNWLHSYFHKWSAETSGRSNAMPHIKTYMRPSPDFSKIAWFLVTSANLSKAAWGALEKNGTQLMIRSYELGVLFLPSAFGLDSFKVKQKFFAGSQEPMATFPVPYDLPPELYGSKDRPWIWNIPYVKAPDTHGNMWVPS
compound,measurement,setting,value
"COc1cc([C@@H]2c3cc4c(cc3[C@@H](O[C@@H]3O[C@@H]5CO[C@@H](C)O[C@H]5[C@H](O)[C@H]3O)[C@H]3COC(=O)[C@H]23)OCO4)cc(OC)c1O [Etoposide, reference compound]",semi-toxic concentrations,HeLa cells [1],micromolar
same,CC50 at 72 h,[2],5.9 ± 1.8 µM
same,CC50 at 72 h,[3],6.2 ± 0.6 µM
"CC[C@@]1(O)C(=O)OCc2c1cc1n(c2=O)Cc2cc3c(CN(C)C)c(O)ccc3nc2-1 [Topotecan, reference compound]",semi-toxic concentrations,HeLa cells [1],submicromolar
same,CC50 at 72 h,[2],0.33 ± 0.07 µM
same,CC50 at 72 h,[3],0.9 ± 0.1 µM
"C[C@H](CCC(=O)Nc1ccc(Br)cc1)[C@H]1CC[C@H]2[C@@H]3CC[C@@H]4C[C@H](OCc5ccccc5)CC[C@]4(C)[C@H]3C[C@H](O)[C@]12C [Compound 8, N-(4′-Bromophenyl)-3α-benzyloxy-12α-hydroxy-5β-cholane-24-amide]",IC50,TDP1,0.57 ± 0.3 µM
same,"Tdp2 activity, c 200 µM",recombinant human TDP2,+
same,Tdp2 (inhibitor concentration 1 mM),recombinant human TDP2,+
same,remaining activity at 1000 µM,recombinant human TDP2,47 ± 3%
same,CI,HeLa cells [4]; Dose Tpc 0.5 + compound 10 μM,0.2446
same,Effect,HeLa cells [4]; Dose Tpc 0.5 + compound 10 μM,0.67
same,CI,HeLa cells [4]; Dose Tpc 1.0 + compound 10 μM,0.2817
same,Effect,HeLa cells [4]; Dose Tpc 1.0 + compound 10 μM,0.78
same,CI,HeLa cells [4]; Dose Tpc 2.0 + compound 10 μM,0.1757
same,Effect,HeLa cells [4]; Dose Tpc 2.0 + compound 10 μM,0.92
same,CI,HeLa cells [4]; Dose Tpc 4.0 + compound 10 μM,0.3046
same,Effect,HeLa cells [4]; Dose Tpc 4.0 + compound 10 μM,0.93
same,CC50 at 72 h,[2],> 100 µM
same,sensitizing effect on topotecan cytotoxicity,HeLa cells [5],greatest sensitizing effect
same,HeLa cell death,HeLa cells [6]; at 20 μM,40%
same,HeLa cell death,HeLa cells [6]; at 100 μM,maintaining this level of toxicity
same,CC50 at 72 h,[3],> 100 µM
"C[C@H](CCC(=O)NCCc1c[nH]c2ccccc12)[C@H]1CC[C@H]2[C@@H]3CC[C@@H]4C[C@H](OCc5ccccc5)CC[C@]4(C)[C@H]3C[C@H](O)[C@]12C [Compound 5, N-(2″-(1H-Indol-3′-yl)ethyl)-3α-benzyloxy-12α-hydroxy-5β-cholane-24-amide]",IC50,TDP1,0.24 ± 0.01 µM
same,"Tdp2 activity, c 200 µM",recombinant human TDP2,+
same,Tdp2 (inhibitor concentration 1 mM),recombinant human TDP2,+
same,remaining activity at 1000 µM,recombinant human TDP2,28 ± 5%
same,CI,HeLa cells [4]; Dose Tpc 0.3 + compound 10 μM,0.4463
same,Effect,HeLa cells [4]; Dose Tpc 0.3 + compound 10 μM,0.61
same,CI,HeLa cells [4]; Dose Tpc 0.5 + compound 10 μM,0.3748
same,Effect,HeLa cells [4]; Dose Tpc 0.5 + compound 10 μM,0.76
same,CI,HeLa cells [4]; Dose Tpc 1.0 + compound 10 μM,0.3937
same,Effect,HeLa cells [4]; Dose Tpc 1.0 + compound 10 μM,0.86
same,CI,HeLa cells [4]; Dose Tpc 2.0 + compound 10 μM,0.2628
same,Effect,HeLa cells [4]; Dose Tpc 2.0 + compound 10 μM,0.95
same,CI,HeLa cells [4]; Dose Tpc 4.0 + compound 10 μM,0.4189
same,Effect,HeLa cells [4]; Dose Tpc 4.0 + compound 10 μM,0.96
same,CC50 at 72 h,[2],> 100 µM
same,sensitizing effect on topotecan cytotoxicity,HeLa cells [5],greatest sensitizing effect
same,HeLa cell death,HeLa cells [6]; at 100 μM,40%
same,CC50 at 72 h,[3],> 100 µM
"C[C@H](CCC(=O)NCCCc1cc(C(C)(C)C)c(O)c(C(C)(C)C)c1)[C@H]1CC[C@H]2[C@@H]3CC[C@@H]4C[C@H](OCc5ccccc5)CC[C@]4(C)[C@H]3C[C@H](OCc3ccccc3)[C@]12C [Compound 10, N-(3″-(3′,5′-Di-tert-butyl-4′-hydroxyphenyl)propyl)-3α,12α-dibenzyloxy-5β-cholane-24-amide]",IC50,TDP1,0.37 ± 0.17 µM
same,"Tdp2 activity, c 200 µM",recombinant human TDP2,+
same,Tdp2 (inhibitor concentration 1 mM),recombinant human TDP2,+
same,remaining activity at 1000 µM,recombinant human TDP2,45 ± 6%
same,CC50 at 72 h,[2],> 100 µM
same,CC50 at 72 h,[3],> 100 µM
